# Source: PubChem BioAssay (NCI)
#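 Protocol summary: plate cells (96-well), add compound at 5 concentrations, incubate 48 h, interpolate endpoints linearly. TGI is the concentration that stops growth completely.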
# Assays:
# Assay in all cases: inhibition of tumour cell growth, NCI panel, 48 h
# 786-0 renal = tested on: 786-0 renal
# A549 NSCLC = tested on: A549 NSCLC
# ACHN renal = tested on: ACHN renal
# BT-549 breast = tested on: BT-549 breast
# CAKI-1 renal = tested on: CAKI-1 renal
# CCRF-CEM leukemia = tested on: CCRF-CEM leukemia
# COLO 205 colon = tested on: COLO 205 colon
# DU-145 prostate = tested on: DU-145 prostate
# EKVX NSCLC = tested on: EKVX NSCLC
# HCC-2998 colon = tested on: HCC-2998 colon
# HCT-116 colon = tested on: HCT-116 colon
# HCT-15 colon = tested on: HCT-15 colon
# HL-60(TB) leukemia = tested on: HL-60(TB) leukemia
# HOP-62 NSCLC = tested on: HOP-62 NSCLC
# HOP-92 NSCLC = tested on: HOP-92 NSCLC
# HS 578T breast = tested on: HS 578T breast
# HT29 colon = tested on: HT29 colon
# IGROV1 ovarian = tested on: IGROV1 ovarian
# K-562 leukemia = tested on: K-562 leukemia
# KM12 colon = tested on: KM12 colon
# LOX IMVI melanoma = tested on: LOX IMVI melanoma
# M14 melanoma = tested on: M14 melanoma
# MALME-3M melanoma = tested on: MALME-3M melanoma
# MCF7 breast = tested on: MCF7 breast
# MDA-MB-231 breast = tested on: MDA-MB-231 breast
# MDA-MB-435 = tested on: MDA-MB-435
# MDA-N = tested on: MDA-N
# MOLT-4 leukemia = tested on: MOLT-4 leukemia
# NCI-H226 lung = tested on: NCI-H226 lung
# NCI-H23 lung = tested on: NCI-H23 lung
# NCI-H460 lung = tested on: NCI-H460 lung
# NCI-H522 lung = tested on: NCI-H522 lung
# NCI/ADR-RES ovarian = tested on: NCI/ADR-RES ovarian
# OVCAR-3 ovarian = tested on: OVCAR-3 ovarian
# OVCAR-4 ovarian = tested on: OVCAR-4 ovarian
# OVCAR-5 ovarian = tested on: OVCAR-5 ovarian
# OVCAR-8 ovarian = tested on: OVCAR-8 ovarian
# PC-3 prostate = tested on: PC-3 prostate
# RPMI-8226 leukemia = tested on: RPMI-8226 leukemia
# RXF 393 renal = tested on: RXF 393 renal
# SF-268 CNS = tested on: SF-268 CNS
# SF-295 CNS = tested on: SF-295 CNS
# SF-539 CNS = tested on: SF-539 CNS
# SK-MEL-2 melanoma = tested on: SK-MEL-2 melanoma
# SK-MEL-28 melanoma = tested on: SK-MEL-28 melanoma
# SK-MEL-5 melanoma = tested on: SK-MEL-5 melanoma
# SK-OV-3 ovarian = tested on: SK-OV-3 ovarian
# SN12C renal = tested on: SN12C renal
# SNB-19 CNS = tested on: SNB-19 CNS
# SNB-75 CNS = tested on: SNB-75 CNS
# SR leukemia = tested on: SR leukemia
# SW-620 colon = tested on: SW-620 colon
# T-47D breast = tested on: T-47D breast
# TK-10 renal = tested on: TK-10 renal
# U251 CNS = tested on: U251 CNS
# UACC-257 melanoma = tested on: UACC-257 melanoma
# UACC-62 melanoma = tested on: UACC-62 melanoma
# UO-31 renal = tested on: UO-31 renal
# A498 renal = tested on: A498 renal
smiles,measurement,setting,value
O=c1c2ccccc2[nH]c(=S)n1-c1ccc(N=Nc2cccc3cc(O)ccc23)cc1,TGI,786-0 renal,> 100 µM
same,TGI,A549 NSCLC,> 100 µM
same,TGI,ACHN renal,> 100 µM
same,TGI,BT-549 breast,> 100 µM
same,TGI,CAKI-1 renal,> 100 µM
same,TGI,CCRF-CEM leukemia,> 100 µM
same,TGI,COLO 205 colon,> 100 µM
same,TGI,DU-145 prostate,> 100 µM
same,TGI,EKVX NSCLC,> 100 µM
same,TGI,HCC-2998 colon,> 100 µM
same,TGI,HCT-116 colon,> 100 µM
same,TGI,HCT-15 colon,> 100 µM
same,TGI,HL-60(TB) leukemia,> 100 µM
same,TGI,HOP-62 NSCLC,> 100 µM
same,TGI,HOP-92 NSCLC,> 100 µM
same,TGI,HS 578T breast,> 100 µM
same,TGI,HT29 colon,> 100 µM
same,TGI,IGROV1 ovarian,> 100 µM
same,TGI,K-562 leukemia,> 100 µM
same,TGI,KM12 colon,> 100 µM
same,TGI,LOX IMVI melanoma,> 100 µM
same,TGI,M14 melanoma,> 100 µM
same,TGI,MALME-3M melanoma,> 100 µM
same,TGI,MCF7 breast,> 100 µM
same,TGI,MDA-MB-231 breast,> 100 µM
same,TGI,MDA-MB-435,> 100 µM
same,TGI,MDA-N,> 100 µM
same,TGI,MOLT-4 leukemia,> 100 µM
same,TGI,NCI-H226 lung,> 100 µM
same,TGI,NCI-H23 lung,> 100 µM
same,TGI,NCI-H460 lung,> 100 µM
same,TGI,NCI-H522 lung,> 100 µM
same,TGI,NCI/ADR-RES ovarian,> 100 µM
same,TGI,OVCAR-3 ovarian,> 100 µM
same,TGI,OVCAR-4 ovarian,> 100 µM
same,TGI,OVCAR-5 ovarian,> 100 µM
same,TGI,OVCAR-8 ovarian,> 100 µM
same,TGI,PC-3 prostate,> 100 µM
same,TGI,RPMI-8226 leukemia,> 100 µM
same,TGI,RXF 393 renal,> 100 µM
same,TGI,SF-268 CNS,> 100 µM
same,TGI,SF-295 CNS,> 100 µM
same,TGI,SF-539 CNS,> 100 µM
same,TGI,SK-MEL-2 melanoma,> 100 µM
same,TGI,SK-MEL-28 melanoma,> 100 µM
same,TGI,SK-MEL-5 melanoma,> 100 µM
same,TGI,SK-OV-3 ovarian,> 100 µM
same,TGI,SN12C renal,> 100 µM
same,TGI,SNB-19 CNS,> 100 µM
same,TGI,SNB-75 CNS,> 100 µM
same,TGI,SR leukemia,> 100 µM
same,TGI,SW-620 colon,> 100 µM
same,TGI,T-47D breast,> 100 µM
same,TGI,TK-10 renal,> 100 µM
same,TGI,U251 CNS,> 100 µM
same,TGI,UACC-257 melanoma,> 100 µM
same,TGI,UACC-62 melanoma,> 100 µM
same,TGI,UO-31 renal,> 100 µM
COc1cc([C@@H]2c3cc4c(cc3[C@@H](c3c(O)cc(O)c5c3O[C@H](c3ccc(O)c(O)c3)[C@H](OC(=O)c3cc(O)c(O)c(O)c3)C5)[C@H]3COC(=O)[C@H]23)OCO4)cc(OC)c1OC,TGI,786-0 renal,> 100 µM
same,TGI,A498 renal,> 100 µM
same,TGI,A549 NSCLC,> 100 µM
same,TGI,ACHN renal,> 50 µM
same,TGI,BT-549 breast,> 100 µM
same,TGI,CAKI-1 renal,> 96.6 µM
same,TGI,CCRF-CEM leukemia,16.2 µM
same,TGI,COLO 205 colon,90 µM
same,TGI,DU-145 prostate,> 100 µM
same,TGI,EKVX NSCLC,> 100 µM
same,TGI,HCC-2998 colon,71.7 µM
same,TGI,HCT-116 colon,> 100 µM
same,TGI,HCT-15 colon,> 100 µM
same,TGI,HL-60(TB) leukemia,0.729 µM
same,TGI,HOP-62 NSCLC,> 100 µM
same,TGI,HOP-92 NSCLC,> 100 µM
same,TGI,HS 578T breast,> 100 µM
same,TGI,HT29 colon,> 75.9 µM
same,TGI,IGROV1 ovarian,> 100 µM
same,TGI,K-562 leukemia,> 100 µM
same,TGI,KM12 colon,> 100 µM
same,TGI,LOX IMVI melanoma,> 100 µM
same,TGI,M14 melanoma,> 100 µM
same,TGI,MCF7 breast,> 100 µM
same,TGI,MDA-MB-231 breast,> 100 µM
same,TGI,MDA-MB-435,7.23 µM
same,TGI,MDA-N,> 100 µM
same,TGI,MOLT-4 leukemia,> 100 µM
same,TGI,NCI-H226 lung,7.53 µM
same,TGI,NCI-H23 lung,> 100 µM
same,TGI,NCI-H460 lung,96.9 µM
same,TGI,NCI-H522 lung,> 100 µM
same,TGI,NCI/ADR-RES ovarian,> 100 µM
same,TGI,OVCAR-3 ovarian,> 21.9 µM
same,TGI,OVCAR-4 ovarian,> 100 µM
same,TGI,OVCAR-5 ovarian,> 100 µM
same,TGI,OVCAR-8 ovarian,> 100 µM
same,TGI,PC-3 prostate,> 77.8 µM
same,TGI,RPMI-8226 leukemia,> 100 µM
same,TGI,RXF 393 renal,> 100 µM
same,TGI,SF-268 CNS,> 100 µM
same,TGI,SF-295 CNS,> 41.8 µM
same,TGI,SF-539 CNS,> 100 µM
same,TGI,SK-MEL-2 melanoma,> 100 µM
same,TGI,SK-MEL-28 melanoma,> 100 µM
same,TGI,SK-MEL-5 melanoma,> 100 µM
same,TGI,SK-OV-3 ovarian,> 100 µM
same,TGI,SN12C renal,> 100 µM
same,TGI,SNB-19 CNS,> 100 µM
same,TGI,SNB-75 CNS,> 100 µM
same,TGI,SR leukemia,8.14 µM
same,TGI,SW-620 colon,> 100 µM
same,TGI,T-47D breast,> 100 µM
same,TGI,TK-10 renal,> 100 µM
same,TGI,U251 CNS,> 100 µM
same,TGI,UACC-257 melanoma,> 100 µM
same,TGI,UACC-62 melanoma,> 100 µM
Cc1ccc(CC(Cc2ccc(C)cc2C(=O)O)C(=O)O)cc1 (stereo not drawn),TGI,786-0 renal,> 100 µM
same,TGI,A498 renal,> 100 µM
same,TGI,A549 NSCLC,> 100 µM
same,TGI,ACHN renal,> 100 µM
same,TGI,BT-549 breast,> 100 µM
same,TGI,CAKI-1 renal,> 100 µM
same,TGI,CCRF-CEM leukemia,> 100 µM
same,TGI,COLO 205 colon,> 100 µM
same,TGI,DU-145 prostate,> 100 µM
same,TGI,EKVX NSCLC,> 100 µM
same,TGI,HCC-2998 colon,> 100 µM
same,TGI,HCT-116 colon,> 100 µM
same,TGI,HCT-15 colon,> 100 µM
same,TGI,HL-60(TB) leukemia,> 100 µM
same,TGI,HOP-62 NSCLC,> 100 µM
same,TGI,HOP-92 NSCLC,> 100 µM
same,TGI,HS 578T breast,> 100 µM
same,TGI,HT29 colon,> 100 µM
same,TGI,IGROV1 ovarian,> 100 µM
same,TGI,KM12 colon,> 100 µM
same,TGI,LOX IMVI melanoma,> 100 µM
same,TGI,M14 melanoma,> 100 µM
same,TGI,MALME-3M melanoma,> 100 µM
same,TGI,MCF7 breast,> 100 µM
same,TGI,MDA-MB-231 breast,> 100 µM
same,TGI,MDA-MB-435,> 100 µM
same,TGI,MDA-N,> 100 µM
same,TGI,MOLT-4 leukemia,> 100 µM
same,TGI,NCI-H226 lung,> 100 µM
same,TGI,NCI-H23 lung,> 100 µM
same,TGI,NCI-H460 lung,> 100 µM
same,TGI,NCI-H522 lung,> 100 µM
same,TGI,NCI/ADR-RES ovarian,> 100 µM
same,TGI,OVCAR-3 ovarian,> 100 µM
same,TGI,OVCAR-4 ovarian,> 100 µM
same,TGI,OVCAR-5 ovarian,> 100 µM
same,TGI,OVCAR-8 ovarian,> 100 µM
same,TGI,PC-3 prostate,> 100 µM
same,TGI,RPMI-8226 leukemia,> 100 µM
same,TGI,RXF 393 renal,> 100 µM
same,TGI,SF-268 CNS,> 100 µM
same,TGI,SF-295 CNS,> 100 µM
same,TGI,SF-539 CNS,> 100 µM
same,TGI,SK-MEL-2 melanoma,> 100 µM
same,TGI,SK-MEL-28 melanoma,> 100 µM
same,TGI,SK-MEL-5 melanoma,> 100 µM
same,TGI,SK-OV-3 ovarian,> 100 µM
same,TGI,SN12C renal,> 100 µM
same,TGI,SNB-19 CNS,> 100 µM
same,TGI,SNB-75 CNS,> 100 µM
same,TGI,SR leukemia,> 100 µM
same,TGI,SW-620 colon,> 100 µM
same,TGI,T-47D breast,> 100 µM
same,TGI,TK-10 renal,> 100 µM
same,TGI,U251 CNS,> 100 µM
same,TGI,UACC-257 melanoma,> 100 µM
same,TGI,UACC-62 melanoma,> 100 µM
same,TGI,UO-31 renal,> 100 µM
